Source: the METLIN SMRT retention time set (Domingo-Almenara et al. 2019)

Assay: gradient 5% acetonitrile 3 min, to 50% in 2 min, to 85% in 15 min, held 3 min, 100 µL/min
Settings: column: Zorbax Extend-C18 2.1 x 50 mm; eluents: water / acetonitrile, 0.1% formic acid
Method in brief: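 Retention times come from adduct peaks that were picked computationally and then checked by hand. The standards, pure and pooled in mixtures of ~100 molecules, were run on a Zorbax Extend-C18 column (2.1 × 50 mm, 1.8 μm) at 100 μL/min with water and acetonitrile, each with 0.1% formic acid. Detection was by quadrupole time-of-flight mass spectrometry in positive and negative ionization mode, with a dead volume of 40 μL and a dwell volume of 900 μL.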

Row | SMILES | RP-LC retention time
1 | Cc1ccc(S(=O)(=O)c2cnc(N3CCN(Cc4ccc5c(c4)OCO5)CC3)nc2N)cc1 | 679 s
2 | Cc1ccc(-c2nc3ccccn3c2Nc2ccc(F)cc2)cc1 | 717 s
3 | O=C(Cn1nc(C2CC2)c2cnn(-c3ccc(F)cc3)c2c1=O)NCC1CCCO1 (stereo not drawn) | 729 s
4 | Cc1noc(C2CN(C(=O)Nc3ccccc3F)CC23CCOCC3)n1 (stereo not drawn) | 694 s
5 | Cc1oc(C2CCN(C(=O)Nc3ccc4c(c3)OCCO4)CC2)nc1C(=O)N(C)C | 675 s
6 | O=C(NCCCN1CCc2ccccc2C1)c1ccnc(-c2cccs2)c1 | 646 s
7 | O=C(NC1CC1)c1ccc(OCC2CCCN2C(=O)c2cc(F)ccc2F)cc1 (stereo not drawn) | 785 s
8 | Cc1ccc2c(c1)cc(S(=O)(=O)c1ccccc1)c(=O)n2CC(=O)N1CCCC1 | 817 s
9 | c1ccc(-c2cc(N3CCN(c4ccccn4)CC3)nn2-c2ccccc2)cc1 | 831 s
10 | CCC(=O)N1CCc2cc(N3CC(C(=O)Nc4cccc(C)c4)CC3=O)ccc21 (stereo not drawn) | 693 s
11 | Cc1ccc(CN2CCC(CNC(=O)c3c(C)oc4nc(C)nc(N5CCOCC5)c34)CC2)cc1 | 629 s
12 | CC1CCN(S(=O)(=O)c2ccc3nn(Cc4cccc(Cl)c4)c(=O)n3c2)CC1 | 1070 s
13 | CCOC(=O)C1CCCN(C(=O)Cc2cc(-c3ccc(F)cc3)on2)C1 (stereo not drawn) | 820 s
14 | Cc1ccc(C)c(-c2csc(Cc3nc(-c4ccc5c(c4)OCO5)no3)n2)c1 | 1260 s
15 | CCOC(=O)c1cnn2c(SC)ncnc12 | 776 s
16 | Fc1ccc(Cc2nc3nccc(-c4cccs4)n3n2)cc1 | 915 s
17 | CCCN1CCN(C(=O)C(C)n2nc(C)c3nn(-c4ccccc4)c(-n4cccc4)c3c2=O)CC1 (stereo not drawn) | 692 s
18 | Cc1ccc(NC(=O)C2CCCN(c3ncnc4c3nc3n4CCCCC3)C2)cc1C (stereo not drawn) | 870 s
19 | CC(C)NC(=O)C1CCN(c2nc3ccc(-c4cncnc4)nc3s2)CC1 | 703 s

Row | SMILES | RP-LC retention time
20 | Cc1nc(-c2ccccc2)nn1C1CCN(S(=O)(=O)c2cccnc2)C1 (stereo not drawn) | 716 s
21 | O=C1C(OC2CCN(Cc3cc(F)ccc3F)CC2)CCN1C1CCCC1 (stereo not drawn) | 641 s
22 | CN(C)CCNC(=O)c1ccc(-c2ccc(N3CCCCCC3)nc2)cc1 | 560 s
23 | CC(C(=O)Nc1ccccc1C(F)(F)F)n1cnc2nc3c(cc2c1=O)CCCC3 (stereo not drawn) | 768 s
24 | Cc1ccccc1-c1noc(CSc2nc3cc4c(cc3c(=O)n2CC2CCCO2)OCO4)n1 (stereo not drawn) | 1170 s
25 | CC(C)(C)n1nnnc1C1CC2(CCOCC2)C(=O)N1Cc1ccccc1F (stereo not drawn) | 756 s
26 | CC(C)NC(=O)N(C1CC1)C1CCOC2(CCN(C(=O)C3CCCC3)CC2)C1 (stereo not drawn) | 814 s
27 | O=C(Cc1ccccc1F)N1CCCn2nc(-c3cccs3)cc2C1 | 875 s
28 | Cc1ccc(-n2cc(C3=CCN(CC(=O)NC4CCN(Cc5ccccc5)CC4)CC3)cn2)cc1 | 551 s
29 | CCCNC(=O)C1CCN(c2cc(SCC(=O)Nc3cccc(CC)c3)ncn2)CC1 | 810 s
30 | NS(=O)(=O)C#Cc1ccccc1 | 729 s
31 | COC(=O)c1ccc2c(c1)nnn2Cc1ccc(F)cc1 | 916 s
32 | Cc1ccc(-n2c(N3CCCC(C(=O)Nc4ccc(Cl)cc4)C3)nc3ccsc3c2=O)cc1 (stereo not drawn) | 1080 s
33 | Cc1cccc(NS(=O)(=O)c2c(C)sc(C)c2-c2cc(C(F)(F)F)on2)c1 | 1180 s
34 | Cc1[nH]nc(-c2ccc(S(=O)(=O)N3CCOCC3)o2)c1C | 707 s
35 | Cc1cc(SCC(=O)N2CCCc3ccccc32)ncn1 | 771 s
36 | NC(=O)C1CCN(S(=O)(=O)c2cc(-c3noc(C4CCC4)n3)cs2)CC1 | 777 s
37 | O=c1c2cc(-c3cccs3)nn2cnn1Cc1nc(-c2ccc(OCc3ccccc3)cc2)no1 | 1220 s
38 | CCOC(=O)CNC(=O)C1CC(=O)N(CCc2c[nH]c3ccc(F)cc23)C1 (stereo not drawn) | 962 s

Row | SMILES | RP-LC retention time
39 | CCOCCCNC(=O)c1ncoc1-c1ccccc1C(=O)N1CCCC1 | 686 s
40 | Cc1ccc(-c2noc(Cn3ccn(Cc4ccc(Cl)cc4)c(=O)c3=O)n2)cc1 | 951 s
41 | O=C(C1CCC1)N1CCCC(OCc2nc(-c3ccncc3)no2)C1 (stereo not drawn) | 713 s
42 | CCc1ccc(CNC(=O)C2CCCN(c3nc4c(s3)c(C)nn4-c3ccc(Cl)cc3)C2)cc1 (stereo not drawn) | 1380 s
43 | CCOC(=O)N1CCC(NC(=O)CCc2cc3cc(OC)ccc3[nH]c2=O)CC1 | 663 s
44 | CCOc1ccc(NC(=O)C2CCN(c3cncnc3N3CCOCC3)CC2)cc1 | 651 s
45 | O=C(c1ccc(-c2csc(C3CC3)n2)cc1)N1CCN(c2ncccn2)CC1 | 912 s
46 | Cc1ccnc(N2CCCC(C(=O)NCCN3CCN(c4ccccc4F)CC3)C2)n1 (stereo not drawn) | 614 s
47 | CCNc1cc(N2CCCC(CCC(=O)NC(C)c3c(C)nn(C)c3C)C2)ncn1 (stereo not drawn) | 582 s
48 | CCOc1ccccc1NC(=O)N1CCCC(C)(C(=O)NCc2ccc(F)cc2)C1 (stereo not drawn) | 983 s
49 | O=C1NC2(CCN(C(=O)c3cccc(F)c3)CC2)Nc2c(Cl)cccc21 | 756 s
50 | O=C(NC1CCCC1)C(c1ccc(Cl)cc1)N1CCN(C(=O)c2ccco2)CC1 (stereo not drawn) | 954 s
51 | CCC(CC)NC(=O)C1CCCCC(=O)N1 (stereo not drawn) | 652 s
52 | Fc1ccc(-c2nnc(-c3nc(NC4CCCCC4)c4ccccc4n3)o2)cc1 | 1110 s
53 | O=C(Nc1ccc(F)c(F)c1)C(=O)c1ccc[nH]1 | 899 s
54 | CS(=O)(=O)N(Cc1cccnc1)C1CN(Cc2ccc(F)c(F)c2)C1 | 571 s
55 | CC(C)NC(=O)CN1CCN(c2ncc(C(=O)Nc3ccccc3)c(N)n2)CC1 | 609 s
56 | CNC(=O)c1cnn(-c2cccc(C)c2)c1-n1cccc1 | 804 s
57 | Cc1cc(Cl)ccc1NS(=O)(=O)c1cc(-c2cc(C(F)(F)F)on2)sc1C | 1260 s

Second part, the compound after the results:

Row | RP-LC retention time | SMILES
58 | 1170 s | CCOC(=O)Cc1sc(Nc2nc3ccccc3s2)nc1-c1ccccc1
59 | 839 s | COc1ccccc1NC(=O)Cn1nc2c(Oc3ccccc3C)nccn2c1=O
60 | 971 s | O=C(Cn1cccc(-c2nc(-c3ccc(Cl)cc3)no2)c1=O)Nc1ccc(F)cc1F
61 | 1010 s | Cc1cc(=O)n(CC(=O)Nc2cc(F)ccc2F)c(-c2ccccc2)n1
62 | 970 s | COc1ccc(-c2nnc(-c3cc(S(=O)(=O)N(C)C)ccc3Cl)o2)cc1
63 | 881 s | Cc1nn(CC(=O)NCc2ccco2)c(=O)c2c(-n3cccc3)n(-c3ccccc3)nc12
64 | 688 s | Cc1nc(-c2cccc(NC(=O)c3coc(NC(=O)c4ccco4)n3)c2)cs1
65 | 724 s | CC(=O)NCC(=O)N1c2ccccc2CC1c1nc(C(C)C)no1 (stereo not drawn)
66 | 759 s | COc1ccccc1C(=O)N1CCCC1COc1ccc(C(=O)NC2CC2)cc1 (stereo not drawn)
67 | 563 s | CN(CCC#N)C(=O)Cn1nc(Cc2cccnc2)c2ccccc2c1=O
68 | 1000 s | O=c1ccn(-c2cccc(F)c2)nc1-c1nc(-c2ccc(Br)cc2)no1
69 | 739 s | CC(=O)Nc1nc(-c2ccc3c(c2)N(C)C(=O)C(C)O3)cs1 (stereo not drawn)
70 | 1050 s | CCOC(=O)Cn1cc(-c2nc(-c3ccc(Br)cc3)no2)ccc1=O
71 | 934 s | O=C1COc2ccccc2N1Cc1nc(-c2ccc3c(c2)OCO3)no1
72 | 736 s | Cc1cccc(-c2nnc(C)c(NCc3ccc(C)o3)n2)c1
73 | 1010 s | COc1ccc(-c2noc(C3CC(=O)N(c4cc(Cl)ccc4OC)C3)n2)c(OC)c1 (stereo not drawn)

Row | RP-LC retention time | SMILES
74 | 1140 s | COc1ccc(-n2nnc(-c3nc(-c4cc(OC)ccc4OC)cs3)c2C)cc1
75 | 894 s | CCOc1cc2c(cc1OCC)C1C(C(=O)NCc3ccc(C)o3)c3ccccc3C(=O)N1CC2 (stereo not drawn)
76 | 955 s | COc1ccc(-c2nnc(-c3ccccc3)o2)cc1S(=O)(=O)N1CCSCC1
77 | 695 s | COc1ccc([N+](=O)[O-])cc1NC(=O)Cc1ccc(S(C)(=O)=O)cc1
78 | 862 s | O=C(CC1(O)C(=O)Nc2c(Cl)cc(Cl)cc21)c1cccc2ccccc12 (stereo not drawn)
79 | 1110 s | c1ccc(-c2noc(-c3ccc(NCc4ccc5c(c4)OCO5)nc3)n2)cc1
80 | 848 s | CCOc1ccccc1-n1ccn(Cc2nc(-c3ccccc3)no2)c(=O)c1=O
81 | 1060 s | CCOC(=O)c1ccc(NC(=O)C2CCCN(S(=O)(=O)c3ccc(OC)c(Cl)c3)C2)cc1 (stereo not drawn)
82 | 751 s | CC(Oc1ccccc1)c1nc(-c2ccc3c(c2)ncn3CCC(=O)N2CCCC2)no1 (stereo not drawn)
83 | 1090 s | Cc1nc(-c2cn(C)c3ncccc23)sc1C(=O)Nc1ccccc1Cl
84 | 946 s | COc1cc(OC)c(NC(=O)N(C)CCc2noc(-c3ccccc3)n2)cc1Cl
85 | 876 s | Cc1cnn(Cc2nc(-c3ccc(NC(=O)c4ccsc4)cc3)oc2C)c1
86 | 560 s | CN(CCCNC(=O)C1CCc2nc(N3CCCC3)ncc2C1)c1ccccc1 (stereo not drawn)
87 | 870 s | Cc1cc2c(c(=O)n(-c3ccccc3)c(=O)n2CC(=O)Nc2cccc(Cl)c2)n1C
88 | 721 s | O=C(Cc1nnc(-c2ccc3ncccc3c2)o1)NCc1ccc(Cl)cc1
